Assays:
[1] = system: TNF; assay: Modulation of TNF production in Colon 38 tumour-bearing mice (serum and tumour, ELISA); type: in vivo; conditions: 3 h
Description: Mice with Colon 38 tumours, approximately 5-7 mm in diameter, were divided into groups of 5. One group was untreated. Other groups were treated with DMXAA (25 mg/kg) alone; DMXAA (25 mg/kg)+thalidomide (100 mg/kg), DMXAA (25 mg/kg)+PG (100 mg/kg), DMXAA (25 mg/kg)+PiG (100 mg/kg), DMXAA (25 mg/kg)+CG (100 mg/kg), DMXAA (25 mg/kg)+thalidomide (20 mg/kg), DMXAA (25 mg/kg)+CG (20 mg/kg), and thalidomide, PG, PiG or CG only at 100 and 200 mg/kg. Three hours after treatment, mice were anaesthetized with halothane (NZ Pharmacology Ltd., Christchurch, New Zealand), and blood was collected from the ocular sinus and tumours were excised. Blood was coagulated overnight at 4° C., and then centrifuged for 30 min at 2,000×g and 4° C., and the serum was removed and stored at −80° C. until use. Tumour tissues were weighed and homogenized in 1.5 ml α-minimal essential medium (Gibco, Grand Island, N.Y., USA). The homogenates were centrifuged (2,000×g, 30 min, 4° C.) and supernatant was removed and re-centrifuged (14,000×g, 30 min, 4° C.). The final supernatants were removed and kept at −80° C. until use. TNF levels in serum and supernatants derived from tumour homogenates were assayed for TNF as described in section 4 (below).
(§1) TNF was assayed using a commercially available ELISA kit (OpEIA human or murine TNF kit, PharMingen, San Diego, Calif., USA), according to the manufacturer's instructions. Briefly, samples (100 μl/well) in duplicate together with a serial dilution of TNF (31.25-2000 pg/ml) for the standard curve, were added to flat-bottom 96-well plates pre-coated with immobilised monoclonal anti-TNF antibody and incubated at room temperature for 2 h. The wells were then washed, biotinylated polyclonal antibody to TNF was added, followed by peroxidase-labelled streptavidin, and incubated at room temperature for 1 h. The wells were washed again, and the substrate, tetramethylbenzidine and hydrogen peroxide was added and after 10 min the reaction was stopped with 2 N sulphuric acid. The absorbance at 450 nm was determined using a microtitre plate reader.

[2] = system: Colon 38 tumours; assay: Tumour growth delay, Colon 38 tumours in mice, combination with DMXAA; type: in vivo; conditions: for tumour volumes at 21 days after treatment compared with DMXAA alone: FIG. 2; for inhibition of tumour growth compared with DMXAA alone: 100 mg/kg i.p. co-administered with DMXAA 25 mg/kg, FIG. 1A
Text: Mice (C57B1/6 bred at the Animal Resources Unit, University of Auckland, New Zealand) were implanted with Colon 38 tumours, obtained originally from the Mason Research Institute (Auckland, New Zewaland) by transferring 1 mm^3 pieces of the tumour into a subcutaneous opening in the left flank of anaesthetized mice. The mice with tumours were used for growth delay experiments when tumours had reached approximately 3-5 mm in diameter. Mice were divided into 10 groups, an untreated control group, a group treated intraperitoneally (i.p.) with DMXAA (5,6-dimethylxanthenone-4-acetic acid, synthesized at the Auckland Cancer Society Research Centre—ACSRC (Auckland, New Zealand) at 25 mg/kg only, and 8 groups treated with DMXAA together with the hydrolytic thalidomide metabolites PG, PiG, CG also synthesized at the ACSRC as previously described (Lu et al, 2003), or thalidomide at 100 mg/kg, or together with CG or thalidomide at 20 mg/kg or 4 mg/kg. DMXAA was dissolved in saline at 2.5 mg/ml and injected i.p. into mice in a volume of 10 μl/g body weight. Thalidomide, PG, PiG and CG were dissolved in dimethylsulphoxide at 40, 8 or 1.6 mg/ml (for dosages of 100, 20, 4 mg/kg respectively) and injected i.p. in a volume of 2.5 μl/g body weight. Tumours were measured 2-3 times weekly after treatment and tumour volumes were calculated as 0.52×a^2×b, where a and b are the minor and major axes of the tumour. The arithmetic means and standard errors were calculated for each point, counting cured animals as having zero tumour volume, and expressed as fractions of the pre-treatment volume. Growth delay was determined as the difference in the number of days required for the tumour to reach four times the pre-treatment volume.

[3] = system: TNF; assay: LPS-induced TNF production by HPBL in culture; type: cell-based, human; conditions: HPBL, LPS 100 pg/ml, 12 h; all concentrations tested (PG, PiG: 1, 5, 25 μg/ml); FIG. 5
Description: Blood (20 ml) each from seven healthy volunteers was collected into heparinized tubes, and was overlayed on top of 10 ml of Ficoll-Paque Plus (Amersham Biosciences AB, Uppsala, Sweden) in 50 ml Falcon polypropylene conical tubes (Becton Dickson Labware, Franklin Lakes, N.J.). The tubes were centrifuged for 30 min at 300×g and 4° C., and the layer of cells was removed and re-suspended at 1×10^6 cells/ml in A-MEM medium supplemented with foetal bovine serum (Moregate BioTech Ltd, Hamilton, New Zealand) (10% v/v), streptomycin sulphate (100 μg/ml) and penicillin-G (100 units/ml) (Sigma, St Louis, Mo., USA). Cells were added to a 24-well plate (Nunc, Kamstrup, Roskilde, Denmark) with LPS (Escherichia coli serotype 055:B5; Sigma, St. Louis, Mo., USA) plus thalidomide or CG at 0.04, 0.2, 1, 5, 25 & 100 μg/ml; or PG or PiG at 1, 5 & 25 μg/ml in a final volume of 1 ml. Wells containing cells only and cells plus LPS only were included as controls. After 12 hours of incubation, supernatants were removed and assayed immediately for TNF as described in section 4.
as §1

[4] = system: ECV304 cells; assay: Inhibition of tube formation of ECV304 cells in Matrigel; type: cell-based, human
Description: Each well in a 24-well plate was coated with 300 μl of Matrigel (Becton Dickinson, San Jose, Calif., USA) which was allowed to solidified at 37° C. for 1 h. […] After 15-18 h of incubation at 37° C. at 5% CO2, the culture supernatant was aspirated. The cells were fixed and stained using Diff-Quick staining kit (Dade AG, Dudingen, Switzerland) according to the manufacturer's instructions. After removal of the staining solution the stained cells in each well were photographed along with a measuring ruler placed at the bottom edge of the photographing field (Olympus Camedia C-5050 professional digital camera, Olympus Optical, Tokyo, Japan). The total length of the tubes formed in the photographs was measured and divided by the area of the field (mm/mm^2).

[5] = system: ECV304 cells; assay: MTT cytotoxicity assay; type: cell-based, human; conditions: 18 h, 2-250/g/ml, vs untreated or DMSO-treated cultures
Description: The 3-(4,5-dimethylthiazol-2-yl)-2,5-diphenyl tetrazolium bromide (MTT) assay, which measures mitochondrial metabolic activity, was used to determine cell viability (Mosmann, 1983). Cells (4×10^3/well) were cultured with various concentrations of thalidomide, CG, PG and PiG in a final volume of 100 μl M199 medium (Gibco, Grand Island, N.Y., USA) supplemented with 10% foetal bovine serum ([…] streptomycin sulphate and 100 units/ml penicillin-G (Sigma, St Louis, Calif., USA) in flat-bottomed 96-well plates at 37° C. at 5% CO2 for 18 h. At the end of the incubation period, 10 μl of MTT (Sigma, St. Louis, Mo., 5 mg/ml in PBS) was added to each well, and the cells were further incubated for 2 h. The supernatants were then removed and the formazan crystals in the cells were dissolved by the addition of 100 μl of DMSO per well, and the absorbance at 590 nm was read using a plate reader. Each concentration of drug was tested in triplicate wells, and the mean ±standard error of the mean (SEM) was calculated.

[6] = 100 mg/kg co-administered with DMXAA 25 mg/kg
[7] = 100 mg/kg co-administered with DMXAA 25 mg/kg, FIG. 3A
[8] = 100 mg/kg co-administered with DMXAA 25 mg/kg, FIG. 3B
[9] = all concentrations tested, FIG. 6

Cc1ccc2c(=O)c3cccc(CC(=O)O)c3oc2c1C [DMXAA, 5,6-dimethylxanthenone-4-acetic acid, reference compound]
increase in serum TNF activity above control untreated mice ([1]; DMXAA alone 25 mg/kg, FIG. 3A): 20 fold | increase in tumour TNF activity above control untreated mice ([1]; DMXAA alone 25 mg/kg, FIG. 3B): 50 fold

NC(=O)CCC(C(=O)O)N1C(=O)c2ccccc2C1=O (stereo not shown) [PG, 5-Amino-2-(1,3-dioxo-1,3-dihydro-2H-isoindol-2-yl)-5-oxopentanoic acid]
tumour volumes at 21 days after treatment compared with DMXAA alone [2, 6]: no significant difference in tumour volumes | inhibition of tumour growth compared with DMXAA alone [2]: did not inhibit tumour growth above that of DMXAA alone | effect on DMXAA-induced serum TNF level [1, 7]: had no effect | effect on DMXAA-induced tumour TNF level [1, 8]: had no effect | effect on LPS-induced TNF production [3]: no significant effect | inhibition of tube formation [4, 9]: did not show any inhibition | toxicity (cell viability, MTT) [5]: No toxicity was observed

O=C1CCC(N2C(=O)c3ccccc3C2=O)C(=O)N1 (stereo not drawn) [thalidomide, α-phthalimidoglutarimide]
potentiation of DMXAA-induced anti-tumour effects ([2]; 4 mg/kg co-administered with DMXAA 25 mg/kg, FIG. 1C): neither CG nor thalidomide showed potentiation | tumour volumes at 21 days after treatment compared with DMXAA alone ([2]; 4 mg/kg co-administered with DMXAA 25 mg/kg): no significant difference | tumour volumes at 21 days after treatment compared with DMXAA alone [2, 6]: significantly smaller tumour volumes than those treated by DMXAA alone | inhibition of tumour growth compared with DMXAA alone [2]: greater inhibition of tumour growth than that of DMXAA alone | effect on DMXAA-induced serum TNF level ([1]; 20 mg/kg co-administered with DMXAA 25 mg/kg, FIG. 3A): reduced DMXAA-induced TNF levels in serum | effect on DMXAA-induced tumour TNF level ([1]; 20 mg/kg co-administered with DMXAA 25 mg/kg, FIG. 3B): no significant effect | effect on DMXAA-induced serum TNF level [1, 7]: reduced DMXAA-induced TNF levels in serum | effect on DMXAA-induced tumour TNF level [1, 8]: no significant effect | effect on LPS-induced TNF production [3]: significantly decreased LPS-induced TNF levels in a dose-dependent manner | inhibition of tube formation ([4]; 250 μg/ml, FIGS. 6 & 7): Near complete inhibition | inhibition at 2 µg/mL ([4]; Homo sapiens, ECV-304, lowest concentration tested, 2 μg/ml, FIG. 7): 38 to 41% | toxicity (cell viability, MTT) [5]: No toxicity was observed

NC(=O)C(CCC(=O)O)N1C(=O)c2ccccc2C1=O (stereo not shown) [PiG, 5-Amino-4-(1,3-dioxo-1,3-dihydro-2H-isoindol-2-yl)-5-oxopentanoic acid]
tumour volumes at 21 days after treatment compared with DMXAA alone [2, 6]: no significant difference in tumour volumes | inhibition of tumour growth compared with DMXAA alone [2]: did not inhibit tumour growth above that of DMXAA alone | effect on DMXAA-induced serum TNF level [1, 7]: had no effect | effect on DMXAA-induced tumour TNF level [1, 8]: had no effect | effect on LPS-induced TNF production [3]: no significant effect | inhibition of tube formation [4, 9]: did not show any inhibition | toxicity (cell viability, MTT) [5]: No toxicity was observed

From patent US20080167272A1, “Thalidomide metabolites and methods of use” (Auckland Uniservices Limited, priority 2005, published 2008)
